What all share (format): cell-based
The subject of one assay is MKN45. Description: Anticancer activity test (MTT viability), gastric cancer cell line MKN45. To be noted: for IC50: MKN45 (n=4), drug incubation 48 hours, MTT. The protocol:
(§1) 1. Gastric cancer cell lines MKN28 and MKN45 were individually seeded in 96-well plates in duplicate at 1×10^3 cells/100 μL/well (a medium (RPMI1640) containing 10% FBS was used) and incubated at 37° C. and 5% CO2 for 68 hours.
(§2) 2. A preparation made by mixing a drug (CDDP ([PtCl2(NH3)2]) or Pd-Oqn) with the medium was dispensed into each well, and thereafter incubated at 37° C. and 5% CO2 for 48 hours.
(§3) 3. MTT was dispensed into each well at 10 μL/well, followed by incubation at 37° C. for 4 hours. Thereafter, the absorbance at 450 nm was measured with a microplate reader, and the viability was calculated.

The next assay deals with MKN28. Briefly: Anticancer activity test (MTT viability), gastric cancer cell line MKN28. The following applies: MKN28 (n=4), drug incubation 48 hours. The protocol:
as §1, §2, §3

A further assay concerns Panc-1. Description: Anticancer activity test (MTT viability), pancreatic cancer cell line Panc-1. To be noted: for IC50: Panc-1 (n=4), drug incubation 48 hours, MTT. The method, then:
1. A pancreatic cancer cell line (Panc-1) was seeded in 96-well plates in duplicate at 1×10^3 cells/100 μL/well (a medium (RPMI1640) containing 10% FBS was used) and incubated at 37° C. and 5% CO2 for 68 hours.
as §2, §3

With `N.N.[Cl][Pt][Cl]` [CDDP, [PtCl2(NH3)2], reference compound], the half-inhibitory concentration (IC50) with MKN45 was found to be 28.2 µM; in the assay with MKN28 it was 87.2 µM; in the assay on Panc-1, 124 µM.

[Pd(GlcN=Oqn)Cl] [Pd-Oqn]: the IC50 in the assay with MKN45 is 11.7 µM; with MKN28 it was 17.5 µM; in the assay with Panc-1, 63.1 µM. Moreover, the “anticancer activity (IC50) relative to cisplatin” value is “about two to five times higher” with MKN45 (stomach cancer cells MKN45 and MKN28 together, versus cisplatin); “about two times higher” in the assay on Panc-1 (Panc-1, versus cisplatin).

A word on the IC50: it is the point on the concentration scale where inhibition reaches its midpoint. A higher IC50 goes with weaker potency.

(Values after patent publication US9346849B2, “Amino sugar-bound anti-cancerous noble metal complex” (NATIONAL UNIVERSITY CORPORATION NARA INSTITUTE OF SCIENCE …, priority 2012, dated 2016).)
